Data published in US11904008B2, “Preparation of live vaccines” (priority 2012, dated 2024).
Values after ≈ are worked out from the molar mass of the structure shown.

What was measured:
Assay in all cases: MIC values of wild type strains
Type in all cases: cell-based
Campylobacter coli WS I = conditions: wild type strain Campylobacter coli WS I; unit assumed
[1] = tested on: Campylobacter jejuni WS II; conditions: wild type strain Campylobacter jejuni WS II; unit assumed
Campylobacter coli WS II = conditions: wild type strain Campylobacter coli WS II; unit assumed
[2] = tested on: Campylobacter jejuni WS I; conditions: wild type strain Campylobacter jejuni WS I; unit assumed
[3] = tested on: Salmonella enterica subsp. enterica serovar Hadar; conditions: wild type strain Salmonella Hadar; unit assumed
[4] = tested on: Salmonella paratyphi B (var. L-tartrate+); conditions: wild type strain Salmonella paratyphi B (var. L-tartrate+); unit assumed
[5] = tested on: Salmonella enterica subsp. enterica serovar Infantis; conditions: wild type strain Salmonella Infantis; unit assumed
[6] = tested on: Salmonella enterica subsp. enterica serovar Virchow; conditions: wild type strain Salmonella Virchow; unit assumed

Compound	MIC (Campylobacter coli WS I) [µg/mL]	MIC [1] [µg/mL]	MIC (Campylobacter coli WS II) [µg/mL]	MIC [2] [µg/mL]	MIC [3] [µg/mL]	MIC [4] [µg/mL]	MIC [5] [µg/mL]	MIC [6] [µg/mL]
C[C@@H]1O[C@@H]1P(=O)(O)O [fosfomycin]	25 (≈ 181 µM)	25 (≈ 181 µM)	25 (≈ 181 µM)	25 (≈ 181 µM)	–	–	–	–
[H]/N=C(/N)N[C@H]1[C@H](O)[C@@H](O)[C@H](O[C@@H]2O[C@@H](C)[C@](O)(C=O)[C@H]2O[C@@H]2O[C@@H](CO)[C@H](O)[C@@H](O)[C@@H]2NC)[C@@H](N/C(N)=N\[H])[C@@H]1O [Streptomycin]	1 (≈ 1.72 µM)	2 (≈ 3.44 µM)	1 (≈ 1.72 µM)	2 (≈ 3.44 µM)	25 (≈ 43 µM)	30 (≈ 51.6 µM)	12.5 (≈ 21.5 µM)	12.5 (≈ 21.5 µM)
